The values that follow come from US20090018150A1, “5-Ht2b Receptor Antagonists” (ASTERAND UK LIMITED, priority 2003, published 2009).

Where a name gives a salt, the structure may show the parent alone. Where only a bound is given, the exact number is not on record here.

The target of experiment [1] is T1, human cloned 5-HT2B receptors (Homo sapiens, UniProt P41595).
T1 construct: expressed in transfected cells; host or cells: CHO-K1
Put plainly: Human cloned 5-HT2B receptor binding assay. The conditions noted are these: [3H]LSD (1 nM) displacement, membranes of CHO-K1 cells expressing cloned 5-HT2B receptor; read-out: 5-HT2B pKi (converted). As to the method:
The binding affinity of the compounds for human cloned 5-HT2B receptors was determined using the following assay.
CHO-K1 cells expressing cloned 5-HT2B receptor were maintained in Ultra-CHO medium containing 400 μg/ml of G418, 100 U/ml penicillin, 100 μg/ml streptomycin, 2.5 μg/ml fungizone and 1-foetal bovine serum, in 95/5% O2/CO2 at 37° C. The cells were harvested using 0.25% trypsin and were centrifuged at 800 rpm for 8 minutes. The cells were homogenised in 50 mM HEPES buffer containing 1 mM disodium EDTA and 1 mM PMSF at pH 7.4, using a Dounce homogeniser (20 strokes). The homogenate was centrifuged at 2280 rpm (1000 g) and 4° C. for 10 minutes, after which the supernatant was removed by decanting. The pellet was re-homogenised as above, and the resulting supernatant removed and combined with that already obtained. The supernatant solution was then centrifuged at 18300 rpm (40000 g) for 10 minutes at 4° C. using a Sorvall centrifuge. The supernatant was removed, and the pellet was re-suspended in 50 mM buffer at pH 7.4 using a Ultra-turrax T25 Polytron, before centrifugation again at 40000 g as above. This wash procedure was repeated, after which the membrane preparation was stored at a concentration of 1 mg/ml at −80° C. until use.
The membranes were thawed rapidly and diluted in assay buffer containing Tris-HCl (50 mM, pH 7.4), ascorbic acid (0.1°) and calcium chloride (4 mM). The membranes were homogenised to resuspend them, prior to adding 10 or 15 μg of membranes to assay wells containing [^3H]LSD (1 nM), assay buffer (50 mM Tris, 4 mM calcium chloride and 0.1° ascorbic acid) containing pargyline (10 μM), and the test compounds (1×10^−10 to 1×10^−4M). Non specific binding was determined in the presence of 100 μM 5-HT. After 30 minutes incubation at 37° C., the assay mixture was filtered through a combination of GF-C and GF-B filters, pre-soaked in 1% polyethyleneimine, using a Brandel cell harvester, and were washed three times using 50 mM Tris-HCl. Radioactivity retained on the filters was determined by liquid scintillation counting. For each test compound, the concentration that inhibited binding of [^3H]LSD by 50% was determined using curve fitting software (Prism). Kd values (concentration of LSD required to occupy 50% of the receptor binding sites at equilibrium) determined from saturation binding studies were then used to calculate inhibition dissociation constants (Ki) using the following equation: […]
This approach follows that set out in Kenakin, T. P. Pharmacologic analysis of drug-receptor interaction. Raven Press, New York, 2nd Edition.

Experiment [2] deals with T2, cloned human 5-HT2A receptor (Homo sapiens, UniProt P28223).
T2 construct: purchased Euroscreen; host or cells: CHO-K1
T2 sequence (P28223 whole entry): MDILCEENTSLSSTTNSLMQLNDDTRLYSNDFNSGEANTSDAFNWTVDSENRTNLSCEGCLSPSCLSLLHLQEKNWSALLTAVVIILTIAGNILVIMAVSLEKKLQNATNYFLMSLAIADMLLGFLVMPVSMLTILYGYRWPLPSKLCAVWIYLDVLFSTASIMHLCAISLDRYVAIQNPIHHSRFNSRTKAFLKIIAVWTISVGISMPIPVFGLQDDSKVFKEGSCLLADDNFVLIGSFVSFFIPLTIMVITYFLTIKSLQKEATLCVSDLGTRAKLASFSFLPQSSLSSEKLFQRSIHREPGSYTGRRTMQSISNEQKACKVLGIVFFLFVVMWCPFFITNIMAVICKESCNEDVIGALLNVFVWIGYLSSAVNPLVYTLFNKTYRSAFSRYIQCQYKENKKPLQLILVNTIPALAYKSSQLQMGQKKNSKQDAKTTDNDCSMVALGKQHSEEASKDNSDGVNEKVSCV
Put plainly: Human 5-HT2A receptor binding assay. Conditions: [3H]ketanserin (1 nM) displacement, CHO-K1 cell membranes; read-out: 5-HT2A pKi (converted). As to the method: (§1) The binding affinity of ligands for human 5-HT2A and 5-HT2C receptors was determined using the following assay.
Membrane preparations from CHO-K1 cells expressing the cloned human 5-HT2A receptor were obtained (Euroscreen). The membranes were thawed rapidly and diluted in assay buffer containing Tris-HCl (50 mM, pH 7.7). The membranes were resuspended by homogenisation, prior to adding 15 μg of membranes to assay wells containing [3H]ketanserin (1 nM), assay buffer (50 mM Tris at pH 7.4) containing pargyline (10 μM), and test compounds (1×10^−10 to 1×10^−4M). Non specific binding was determined in the presence of 100 μM mianserin. After 15 minutes incubation at 37° C., the assay mixture was filtered through a combination of GF-C and GF-B filters, pre-soaked in 0.05% Brij, using a Brandel cell harvester, and were washed three times using ice cold Tris-HCl buffer (50 mM). Radioactivity retained on the filters was determined by liquid scintillation counting. For each test compound, the concentration that inhibited binding of [^3H]ketanserin by 50% was determined using curve fitting software (Prism). Kd values (concentration of ketanserin required to occupy 50% of the receptor binding sites at equilibrium) determined from saturation binding studies were then used to calculate inhibition dissociation constants (Ki) using the following equation: […]

The target in experiment [3] is T3, cloned human 5-HT2C receptor (Homo sapiens, UniProt P28335).
T3 construct: purchased Euroscreen; host or cells: CHO-K1
T3 sequence (P28335 33-458): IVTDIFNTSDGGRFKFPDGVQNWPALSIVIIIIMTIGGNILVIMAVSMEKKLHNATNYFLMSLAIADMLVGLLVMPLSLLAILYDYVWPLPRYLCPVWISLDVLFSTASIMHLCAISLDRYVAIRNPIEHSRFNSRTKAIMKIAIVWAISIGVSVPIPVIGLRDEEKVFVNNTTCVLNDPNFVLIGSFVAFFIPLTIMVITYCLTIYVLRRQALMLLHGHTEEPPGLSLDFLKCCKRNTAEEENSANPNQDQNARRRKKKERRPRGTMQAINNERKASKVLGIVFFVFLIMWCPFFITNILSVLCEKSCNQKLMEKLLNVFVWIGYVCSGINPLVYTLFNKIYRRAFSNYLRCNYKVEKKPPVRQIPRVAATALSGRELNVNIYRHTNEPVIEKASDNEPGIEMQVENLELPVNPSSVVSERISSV
The experiment can be described thus: Human 5-HT2C receptor binding assay. Conditions: [3H]mesulergine (1 nM) displacement, CHO-K1 cell membranes; read-out: 5-HT2C pKi (converted). As to the method: as §1
Membrane preparations from CHO-K1 cells expressing the cloned human 5-HT2C receptor were obtained (Euroscreen). The membranes were thawed rapidly and diluted in assay buffer containing Tris-HCl (50 mM, pH 7.7), ascorbic acid (0.1%) and pargyline (10 μM). The membranes were resuspended by homogenisation, prior to adding 6 μg of membranes to assay wells containing [^3H]mesulergine (1 nM), assay buffer (50 mM Tris at pH 7.7 and 0.1% ascorbic acid) containing pargyline (10 μM), and test compounds (1×10^−10 to 1×10^−4M). Non specific binding was determined in the presence of 100 μM mianserin. After 30 minutes incubation at 37° C., the assay mixture was filtered through a combination of GF-C and GF-B filters, pre-soaked in 1% bovine serum albumin, using a Brandel cell harvester, and were washed three times using ice cold Tris-HCl buffer (50 mM). Radioactivity retained on the filters was determined by liquid scintillation counting. For each test compound, the concentration that inhibited binding of [^3H]mesulergine by 50% was determined using curve fitting software (Prism). Kd values (concentration of mesulergine required to occupy 50% of the receptor binding sites at equilibrium) determined from saturation binding studies were then used to calculate inhibition dissociation constants (Ki) using the following equation: […]

T1 sequence (P41595 whole entry): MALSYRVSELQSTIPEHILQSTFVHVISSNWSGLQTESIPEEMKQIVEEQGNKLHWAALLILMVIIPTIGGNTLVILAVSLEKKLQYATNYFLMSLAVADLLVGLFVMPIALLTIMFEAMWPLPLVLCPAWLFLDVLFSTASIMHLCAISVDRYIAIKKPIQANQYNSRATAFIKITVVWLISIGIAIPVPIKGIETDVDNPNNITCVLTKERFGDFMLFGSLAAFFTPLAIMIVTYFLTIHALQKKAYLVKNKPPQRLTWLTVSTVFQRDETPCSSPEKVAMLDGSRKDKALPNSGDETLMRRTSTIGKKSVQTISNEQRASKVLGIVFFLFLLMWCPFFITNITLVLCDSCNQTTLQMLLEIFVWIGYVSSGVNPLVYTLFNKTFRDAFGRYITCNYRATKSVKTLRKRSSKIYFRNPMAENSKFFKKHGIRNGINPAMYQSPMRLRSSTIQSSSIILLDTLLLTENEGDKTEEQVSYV

Consider `Cc1cc(Nc2ccc(Br)cc2)nc(N)n1` [Compound 2F, N^4-(4-bromo-phenyl)-6-methyl-pyrimidine-2,4-diamine hydrochloride], for which the Ki in experiment [1] was less than 1000 nM; in experiment [2], more than 10000 nM; in experiment [3], more than 10000 nM.
Turning to `Cc1cc(Nc2cccc(I)c2)nc(N)n1` [Compound 2G, N^4-(3-iodo-phenyl)-6-methyl-pyrimidine-2,4-diamine hydrochloride], the Ki in experiment [1] was less than 100 nM; in experiment [2], more than 3160 nM; in experiment [3], more than 316 nM.
For `Cc1cc(Nc2cccc(C(F)(F)F)c2)nc(N)n1` [Compound 2H, 6-Methyl-N^4-(3-trifluoromethyl-phenyl)-pyrimidine-2,4-diamine, hydrochloride] the same measures were less than 1000 nM, more than 10000 nM and more than 1000 nM.
For the compound `Cc1cc(Nc2ccc(F)cc2)nc(N)n1` [Compound 2I, N^4-(4-fluoro-phenyl)-6-methyl-pyrimidine-2,4-diamine hydrochloride], the Ki in experiment [1] was less than 1000 nM; in experiment [2], more than 10000 nM; in experiment [3], more than 1000 nM.
`Cc1cc(Nc2ccc3c(c2)CCC3)nc(N)n1` [Compound 2J, N^4-indan-5-yl-6-methyl-pyrimidine-2,4-diamine hydrochloride]: the results for the Ki in experiment [1], in experiment [2] and in experiment [3] were less than 100 nM, more than 10000 nM and more than 1000 nM, respectively.
In the same order, the values of `Cc1cc(Nc2ccc(N3CCOCC3)cc2)nc(N)n1` [Compound 2K, 6-methyl-N^4-(4-morpholin-4-yl-phenyl)-pyrimidine-2,4-diamine hydrochloride] are less than 1000 nM, more than 10000 nM and more than 10000 nM.
Regarding `Cc1cc(Nc2ccc(F)c(F)c2)nc(N)n1` [Compound 2M, N^4-(3,4-difluoro-phenyl)-6-methyl-pyrimidine-2,4-diamine hydrochloride], the Ki in experiment [1] is less than 1000 nM; in experiment [2] it was more than 1000 nM; in experiment [3], more than 1000 nM.
As to `Cc1cc(Nc2ccc(Cl)c(Cl)c2)nc(N)n1` [Compound 2N, N^4-(3,4-dichloro-phenyl)-6-methyl-pyrimidine-2,4-diamine hydrochloride], the Ki in experiment [1] is less than 1000 nM; in experiment [2], more than 1000 nM; in experiment [3] it was more than 1000 nM.
As for `Cc1cc(Nc2cc(Br)ccc2O)nc(N)n1` [Compound 2O, 2-(2-amino-6-methyl-pyrimidin-4-ylamino)-4-bromo-phenol hydrochloride], the results for the Ki in experiment [1], in experiment [2] and in experiment [3] were less than 1000 nM, more than 1000 nM and more than 100 nM, respectively.
`Cc1cc(Nc2cccc(O)c2)nc(N)n1` [Compound 2Q, 3-(2-amino-6-methyl-pyrimidin-4-ylamino)-phenol hydrochloride]: the Ki in experiment [1] was less than 1000 nM; in experiment [2], more than 1000 nM; in experiment [3], more than 1000 nM.
As to `Cc1cc(Nc2cccc3c2CCC3)nc(N)n1` [Compound 2R, N^4-indan-4-yl-6-methyl-pyrimidine-2,4-diamine hydrochloride], the figures for the Ki in experiment [1], in experiment [2] and in experiment [3] were less than 1000 nM, more than 1000 nM and more than 1000 nM, respectively.
With `Cc1cc(Nc2ccc(C)c(Br)c2)nc(N)n1` [Compound 2S, N^4-(3-bromo-4-methyl-phenyl)-6-methyl-pyrimidine-2,4-diamine hydrochloride], the Ki in experiment [1] was less than 100 nM; in experiment [2], more than 1000 nM; in experiment [3], more than 316 nM.
For the compound `Cc1cc(Nc2cccc(Br)c2C)nc(N)n1` [Compound 2T, N^4-(3-bromo-2-methyl-phenyl)-6-methyl-pyrimidine-2,4-diamine hydrochloride], the results for the Ki in experiment [1], in experiment [2] and in experiment [3] were less than 1000 nM, more than 1000 nM and more than 1000 nM, respectively.
For the compound `Cc1ccc(Nc2cc(C)nc(N)n2)cc1` [Compound 2U, 6-methyl-N^4-p-tolyl-pyrimidine-2,4-diamine hydrochloride], the Ki in experiment [1] is less than 1000 nM; in experiment [2] it was more than 1000 nM; in experiment [3], more than 1000 nM.
In the case of `CC(=O)Nc1ccc(Nc2cc(C)nc(N)n2)cc1` [Compound 2V, N-[4-(2-amino-6-methyl-pyrimidin-4-ylamino)-phenyl]-acetamide hydrochloride], the Ki was less than 1000 nM in experiment [1], more than 1000 nM in experiment [2] and more than 1000 nM in experiment [3].
As for `Cc1cc(Nc2cccc(CO)c2)nc(N)n1` [Compound 2X, [3-(2-amino-6-methyl-pyrimidin-4-ylamino)-phenyl]-methanol hydrochloride], the Ki is less than 1000 nM in experiment [1], more than 1000 nM in experiment [2] and more than 1000 nM in experiment [3].
As to `Cc1cc(Nc2ccc(I)c(Cl)c2)nc(N)n1` [Compound 2Y, N-(3-chloro-4-iodo-phenyl)-6-methyl-pyrimidine-2,4-diamine hydrochloride], the Ki in experiment [1] was less than 100 nM; in experiment [2], more than 1000 nM; in experiment [3], more than 1000 nM.
In the case of `Cc1cc(Oc2cccc3ccccc23)nc(N)n1` [Compound 4B, 4-methyl-6-(naphthalen-1-yloxy)-pyrimidin-2-ylamine], the Ki is less than 100 nM in experiment [1], more than 10000 nM in experiment [2] and more than 10000 nM in experiment [3].
Consider `Cc1cc(Oc2cccc(-c3ccccc3)c2)nc(N)n1` [Compound 4C, 4-(biphenyl-3-yloxy)-6-methylpyrimidin-2-ylamine], for which the Ki was less than 1000 nM in experiment [1], more than 10000 nM in experiment [2] and more than 10000 nM in experiment [3].
In the case of `Cc1cc(Nc2cccc(-c3ccccc3)c2)nc(N)n1` [Compound 10A, N^4-biphenyl-3-yl-6-methyl-pyrimidine-2,4-diamine trifluoroacetic acid], the values for the Ki in experiment [1], in experiment [2] and in experiment [3] were less than 100 nM, more than 100 nM and more than 316 nM, respectively.
